Laboratory results reported in EP0562479A1, “1-Phenyl-5-heterocyclic-1H-1, 2,4-triazole-3-carboxamide derivates, process for preparation of the same, and fungicidal composition comprising the same” (KUREHA CHEMICAL INDUSTRY CO., LTD., priority 1992, dated 1993).

System: Botrytis cinerea
Assay: Test for controlling effect against cucumber gray mold
Assay type: in vivo, Botrytis cinerea on cucumber
Settings: wettable powder sprayed 5 ml per pot, lesion areas three days after inoculation
Method: Test Example 1 〈Test for controlling effect against cucumber gray mold (Botrytis cinerea on cucumber)〉 A wettable powder similar to that prepared in Formulation Example 2, diluted with water to a prescribed concentration, was sprayed onto the cucumber plants of the first leaf stage (variety: […], one plant per pot) growing in an unglazed pot (diameter: 10 cm), in an amount of 5 ml per pot. After drying the sprayed leaves in the air, a circular cutting (diameter: 4 mm) of agar containing Botrytis cinerea, which had been cultured in advance in a potato-sucrose agar medium at 20°C for 3 days, was attached directly to the center part of the leaves, and the pots maintained at 20-22°C under high humidity conditions. Three days after the inoculation, lesion areas of the disease were examined to calculate the inhibition rate according to the following equation. [formula]

CCCCOC(c1cccc(-n2nc(C(N)=O)nc2-c2cccc(C)n2)c1)C(C)C (centres unmarked) [Compound 7, 1-[3-[(1-butoxy-2-methyl)propyl]phenyl]-5-(6-methylpyridin-2-yl)-1H-1,2,4-triazole-3-carboxamide]
Inhibition rate (%) at concentration of 500 ppm Cucumber gray mold: 95%

CCCCOC(c1cccc(-n2nc(C(N)=O)nc2-c2sccc2C)c1)C(C)C (centres unmarked) [Compound 16, 1-[3-[(1-butoxy-2-methyl)propyl]phenyl]-5-(3-methylthiophen-2-yl)-1H-1,2,4-triazole-3-carboxamide]
Inhibition rate (%) at concentration of 500 ppm Cucumber gray mold: 94%
